Holding throughout (type): biochemical
For one assay, the target named is T1, MERTK (Homo sapiens, UniProt Q12866).
T1 sequence (Q12866 21-999): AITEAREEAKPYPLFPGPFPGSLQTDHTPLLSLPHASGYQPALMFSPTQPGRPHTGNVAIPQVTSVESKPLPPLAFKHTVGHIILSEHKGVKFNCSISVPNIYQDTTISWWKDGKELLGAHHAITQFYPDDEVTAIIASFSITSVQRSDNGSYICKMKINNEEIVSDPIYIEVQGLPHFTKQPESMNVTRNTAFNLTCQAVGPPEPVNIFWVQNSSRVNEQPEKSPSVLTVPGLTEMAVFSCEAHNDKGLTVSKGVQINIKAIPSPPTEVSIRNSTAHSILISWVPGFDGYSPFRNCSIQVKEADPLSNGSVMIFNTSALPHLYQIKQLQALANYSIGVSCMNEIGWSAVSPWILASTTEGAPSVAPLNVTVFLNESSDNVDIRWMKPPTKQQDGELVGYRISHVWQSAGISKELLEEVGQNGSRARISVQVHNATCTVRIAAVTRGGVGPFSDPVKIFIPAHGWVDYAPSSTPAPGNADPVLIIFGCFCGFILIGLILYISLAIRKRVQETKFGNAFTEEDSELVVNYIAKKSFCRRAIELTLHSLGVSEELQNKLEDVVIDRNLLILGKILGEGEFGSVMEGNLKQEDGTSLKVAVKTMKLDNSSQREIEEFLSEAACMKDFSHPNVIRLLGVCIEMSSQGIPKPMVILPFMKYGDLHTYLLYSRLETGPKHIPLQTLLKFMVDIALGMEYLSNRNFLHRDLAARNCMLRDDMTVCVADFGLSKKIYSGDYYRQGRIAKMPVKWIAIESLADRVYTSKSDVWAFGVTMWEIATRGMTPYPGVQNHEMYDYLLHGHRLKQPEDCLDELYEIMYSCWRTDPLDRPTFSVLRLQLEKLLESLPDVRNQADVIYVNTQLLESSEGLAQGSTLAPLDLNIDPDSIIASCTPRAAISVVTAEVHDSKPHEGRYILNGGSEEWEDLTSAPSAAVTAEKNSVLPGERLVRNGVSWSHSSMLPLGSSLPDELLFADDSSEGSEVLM
The assay is described as follows: MERTK enzymatic assay (Kinase Glo). The settings on record: purified kinase, ATP 12 μM, read-out: MER Enzymatic Inhibition (%). Here is the method:
(§1) A purified kinase (AXL or MERTK) was incubated with a compound or DMSO (control) for 15 minutes in an assay buffer (25 mM Tri s pH 7.4, 10 mM MgCl2, 4 mM MnCl2, 2 mM DTT, 0.0100 BSA, 0.02% TritonX-100, 0.0100 Brij35 and 0.5 mM Na3VO4 for MERTK; and 40 mM Tri s pH 7.4, 20 mM MgCl2, 2 mM DTT, 0.01% BSA and 0.5 mM Na3VO4 for AXL). […] The mixture was incubated for 3 hours at 30° C. The luminescence was calculated to determine the kinase activity using a Kinase Glo assay kit for MERTK and an ADP-Glo Kinase Assay kit for AXL following the manufacture's instructions (Promega Corp., Madison, Wisconsin).
(§2) A study was conducted to compare exemplary compounds of formula (I) in inhibiting TAM activities, including MERTK, AXL, and TYRO3. An enzymatic assay was used in the study. A purified Kinase (i.e., MERTK, AXL, or TYRO3) was incubated with a compound or DMSO (control) for around 15 minutes in an assay buffer (25 mM Tris pH 7.4, 10 mM MgCl2, 4 mM MnCl2, 2 mM DTT, 0.01% BSA, 0.02% TritonX-100, 0.01% Brij35 and 0.5 mM Na3VO4 for MERTK; 40 mM Tris pH 7.4, 20 mM MgCl2, 2 mM DTT, 0.01% BSA and 0.5 mM Na3VO4 for AXL; and 25 mM Tris pH 7.4, 10 mM MgCl2, 4 mM MnCl2, 2 mM DTT, 0.01% BSA and 0.5 mM Na3VO4 for TYRO3). […] The mixture was incubated for 3 hours at 30° C. The luminescence was calculated to determine the kinase activity using a Kinase Glo assay kit for MERTK and an ADP-Glo Kinase assay kit for AXL and TYRO3 following the manufacture's instructions (Promega). Inhibition rates and half maximal inhibitory concentration (IC50) values were calculated. High percentage inhibition rates and low IC50 values are indicatives of high potency of the test compound.
A general note: Kinase-Glo reads ATP consumption through a luciferase reaction.

Another assay has as its system MER/AXL. The assay is described as follows: Dual MER/AXL inhibition (enzymatic). The note with it: class for both MER and AXL. Here is the method: as §1
The target of another assay is T2, AXL (Homo sapiens, UniProt P30530).
T2 sequence (P30530 26-894): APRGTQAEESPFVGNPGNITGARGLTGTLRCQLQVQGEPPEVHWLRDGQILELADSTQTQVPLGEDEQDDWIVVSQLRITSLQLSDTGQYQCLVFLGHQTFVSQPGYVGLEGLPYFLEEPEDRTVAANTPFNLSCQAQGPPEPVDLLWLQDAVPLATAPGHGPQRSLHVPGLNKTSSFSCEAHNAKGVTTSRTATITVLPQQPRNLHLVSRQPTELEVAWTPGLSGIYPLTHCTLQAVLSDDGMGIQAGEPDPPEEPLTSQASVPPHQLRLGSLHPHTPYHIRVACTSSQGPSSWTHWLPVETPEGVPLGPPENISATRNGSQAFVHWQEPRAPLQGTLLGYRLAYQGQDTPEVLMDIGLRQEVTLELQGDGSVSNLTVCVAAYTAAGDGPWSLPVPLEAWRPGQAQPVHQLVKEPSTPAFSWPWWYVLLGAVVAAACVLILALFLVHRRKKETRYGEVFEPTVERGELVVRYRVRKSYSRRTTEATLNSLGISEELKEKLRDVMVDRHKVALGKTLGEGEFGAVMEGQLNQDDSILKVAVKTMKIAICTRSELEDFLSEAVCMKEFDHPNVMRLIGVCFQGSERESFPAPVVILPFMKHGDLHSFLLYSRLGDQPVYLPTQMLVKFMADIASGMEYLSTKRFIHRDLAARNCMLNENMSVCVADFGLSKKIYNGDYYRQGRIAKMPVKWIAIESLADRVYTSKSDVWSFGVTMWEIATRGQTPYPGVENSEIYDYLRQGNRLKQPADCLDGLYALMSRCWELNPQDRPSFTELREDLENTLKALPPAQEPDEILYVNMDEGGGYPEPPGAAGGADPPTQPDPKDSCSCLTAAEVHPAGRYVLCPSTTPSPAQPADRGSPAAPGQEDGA
Description: AXL enzymatic assay (ADP-Glo). The settings on record: purified kinase, ATP 50 μM, read-out: AXL Enzymatic Inhibition (%). How it is done: as §1, §2
In general terms: In ADP-Glo the light output rises with the ADP produced.

As for `CCOc1ccn(-c2ccc(F)cc2)c(=O)c1C(=O)Nc1ccc(Oc2ncnc3[nH]cc(-c4cccc(N)c4)c23)cc1` [Compound 1], the results for the IC50 on MERTK, with MER/AXL and on AXL were 20 to 100 nM, 20 to 100 nM and less than 20 nM, respectively.

`CCOc1ccn(-c2ccc(F)cc2)c(=O)c1C(=O)Nc1ccc(Oc2ncnc3[nH]cc(-c4cccc(NC(C)=O)c4)c23)cc1` [Compound 2]: the results for the IC50 at MERTK, in the assay with MER/AXL and on AXL were 20 to 100 nM, 20 to 100 nM and less than 20 nM, respectively.

Turning to `O=C(Nc1ccc(Oc2nc(Cl)nc3[nH]ccc23)cc1)c1cccn(-c2ccc(F)cc2)c1=O` [Compound 5], the IC50 at MERTK, with MER/AXL and on AXL was 100 to 50000 nM each time.

Take `CCOc1ccn(-c2ccc(F)cc2)c(=O)c1C(=O)Nc1ccc(Oc2ncnc3[nH]ccc23)cc1` [Compound 6]: the IC50 on MERTK, in the assay on MER/AXL and at AXL was 100 to 50000 nM each time.

`O=C(Nc1ccc(Oc2ncnc3[nH]cc(-c4ccccc4)c23)cc1)c1cccn(-c2ccc(F)cc2)c1=O` [Compound 8]: the results for the IC50 at MERTK, in the assay with MER/AXL and on AXL were 20 to 100 nM, 100 to 50000 nM and 100 to 50000 nM, respectively.

Consider `Nc1cccc(-c2c(-c3ccccc3)oc3ncnc(Oc4ccc(NC(=O)c5cccn(-c6ccc(F)cc6)c5=O)cc4)c23)c1` [Compound 9], for which the IC50 at MERTK, with MER/AXL and on AXL was 100 to 50000 nM each time.

Consider `C=CC(=O)Nc1cccc(-c2c(-c3cnn(C)c3)oc3ncnc(Oc4ccc(NC(=O)c5cccn(-c6ccc(F)cc6)c5=O)cc4)c23)c1` [Compound 12], for which the IC50 at MERTK, in the assay with MER/AXL and on AXL was 100 to 50000 nM each time.

Regarding `O=C(Nc1ccc(Nc2ncnc3[nH]cc(C#Cc4ccccc4)c23)cc1)c1cccn(-c2ccc(F)cc2)c1=O` [Compound 13], the IC50 on MERTK, with MER/AXL and on AXL was 100 to 50000 nM each time.

As to `Nc1cccc(-c2c[nH]c3ncnc(Nc4ccc(NC(=O)c5cccn(-c6ccc(F)cc6)c5=O)cc4)c23)c1` [Compound 14], the IC50 on MERTK was 100 to 50000 nM; with MER/AXL, 100 to 50000 nM; on AXL it was less than 20 nM.

Turning to `O=C(Nc1ccc(Oc2ncnc3[nH]cc(-c4cccnc4)c23)cc1)c1cccn(-c2ccc(F)cc2)c1=O` [Compound 16], the IC50 on MERTK was 100 to 50000 nM; with MER/AXL it was 100 to 50000 nM; on AXL, less than 20 nM.

Consider `O=C(Nc1ccc(Oc2ncnc3[nH]cc(-c4ccccn4)c23)cc1)c1cccn(-c2ccc(F)cc2)c1=O` [Compound 17], for which the results for the IC50 at MERTK, in the assay with MER/AXL and at AXL were 100 to 50000 nM, 100 to 50000 nM and less than 20 nM, respectively.

Take `O=C(Nc1ccc(Oc2ncnc3[nH]cc(C#Cc4ccccc4)c23)cc1)c1cccn(-c2ccc(F)cc2)c1=O` [Compound 18]: the IC50 is 100 to 50000 nM on MERTK, 100 to 50000 nM with MER/AXL and less than 20 nM on AXL.

With `CCOc1ccn(-c2ccc(F)cc2)c(=O)c1C(=O)Nc1ccc(Oc2ncnc3oc(-c4cnn(C)c4)c(-c4cccc(N)c4)c23)cc1` [Compound 19], the IC50 is 20 to 100 nM on MERTK, 20 to 100 nM in the assay with MER/AXL and less than 20 nM on AXL.

For `CN(C)c1cccc(-c2c[nH]c3ncnc(Oc4ccc(NC(=O)c5cccn(-c6ccc(F)cc6)c5=O)cc4)c23)c1` [Compound 21], the IC50 at MERTK, in the assay on MER/AXL and on AXL was 100 to 50000 nM throughout.

Take `CNc1cccc(-c2c[nH]c3ncnc(Oc4ccc(NC(=O)c5cccn(-c6ccc(F)cc6)c5=O)cc4)c23)c1` [Compound 22]: the IC50 on MERTK was in the range of 100 to 50000 nM; in the assay on MER/AXL it was 100 to 50000 nM; on AXL, 20 to 100 nM.

`CC(=O)Nc1cccc(-c2c(-c3c(C)noc3C)oc3ncnc(Oc4ccc(NC(=O)c5cccn(-c6ccc(F)cc6)c5=O)cc4)c23)c1` [Compound 26]: the IC50 on MERTK, with MER/AXL and on AXL was 100 to 50000 nM in each case.

Consider `CC(=O)Nc1cccc(-c2c(-c3cn(C)nc3C)oc3ncnc(Oc4ccc(NC(=O)c5cccn(-c6ccc(F)cc6)c5=O)cc4)c23)c1` [Compound 27], for which the IC50 is 100 to 50000 nM at MERTK, 100 to 50000 nM in the assay with MER/AXL and less than 20 nM at AXL.

In the case of `Cn1cc(-c2oc3ncnc(Oc4ccc(NC(=O)c5cccn(-c6ccc(F)cc6)c5=O)cc4)c3c2-c2cccnc2)cn1` [Compound 31], the IC50 on MERTK is 100 to 50000 nM; in the assay with MER/AXL it was 100 to 50000 nM; on AXL it was less than 20 nM.

For the compound `Cn1cc(-c2oc3ncnc(Oc4ccc(NC(=O)c5cccn(-c6ccc(F)cc6)c5=O)cc4)c3c2-c2ccc(N3CCNCC3)cc2)cn1` [Compound 32], the IC50 on MERTK, in the assay on MER/AXL and on AXL was less than 20 nM each time.

On to `Cn1cc(-c2oc3ncnc(Oc4ccc(NC(=O)c5cccn(-c6ccc(F)cc6)c5=O)cc4)c3c2-c2cccc(N3CCNCC3)c2)cn1` [Compound 33], for which the IC50 on MERTK, in the assay with MER/AXL and on AXL was less than 20 nM each time.

`CC(=O)Nc1cccc(-c2c(Br)oc3ncnc(Oc4ccc(NC(=O)c5cccn(-c6ccc(F)cc6)c5=O)cc4)c23)c1` [Compound 49]: the IC50 on MERTK is 100 to 50000 nM; at AXL it was 20 to 100 nM.

`Cn1cc(-c2oc3ncnc(Oc4ccc(NC(=O)c5cccn(-c6ccc(F)c(Cl)c6)c5=O)cc4)c3c2-c2cccc(N)c2)cn1` [Compound 96]: the IC50 is 20 to 100 nM on MERTK and less than 20 nM on AXL.

Turning to `CN(C)Cc1cccc(-c2c(-c3cnn(C)c3)oc3ncnc(Oc4ccc(NC(=O)c5cccn(-c6ccc(F)c(Cl)c6)c5=O)cc4)c23)c1` [Compound 97], the figures for the IC50 on MERTK and on AXL were 20 to 100 nM and less than 20 nM, respectively.

Values taken from patent publication US20260070911A1, “INHIBITORS OF TAM RECEPTORS” (National Health Research Institutes, priority 2022, published 2026).
